Results reported in article PMC6314593, “Characterization of novel lignocellulose-degrading enzymes from the porcupine microbiome using synthetic metagenomics” (PLoS ONE, 2019).

Tested on: T1, endo-1,4-β-xylanase
T1 construct: gene GH10 xylanase; codon-optimised synthetic gene in pET26b(+); N-terminal PelB leader, C-terminal 6xHis, tags kept; ~81 kDa; E. coli BL21(DE3)
Assay: fluorescence of released CMU (ex […] nm, em […] nm), Lineweaver-Burk
Format: biochemical, uncultured bacterium
Settings: pH 7, 37°C, 50 mM sodium phosphate

- Km: 32 ± 4.72 µM
SMILES: Cc1cc(=O)oc2cc(O[C@@H]3OC[C@@H](O[C@@H]4OC[C@@H](O)[C@H](O)[C@H]4O)[C@H](O)[C@H]3O)c(Cl)cc12 [CMU-X2, 6-chloro-4-methylumbelliferyl xylobioside]
